Assay results: patent US9938281B2 (Merck Sharp & Dohme Corp., priority 2012, dated 2018)

Assays:
PI3K-delta = target: T1, PI3K-delta (Homo sapiens, UniProt O00329); experiment: HTRF PI3K biochemical assay, delta isoform; details: form screened (neutral or TFA salt) given, read-out: PI3Kdelta IC50
T1 construct: purchased Upstate; Millipore 14-604
Text: HTRF PI3K Biochemical Assay to Measure Intrinsic Potency of Compound Inhibitors
This assay was developed and further optimized from a kit produced by Upstate (Millipore catalog #33-047) and has been configured for HTS and SAR screening. Briefly, this procedure exploits the exquisite specificity and high affinity binding of enzyme reaction substrate phosphatidyl(3,4,5)triphosphate (PIP3) to the GRP1 pleckstrin homology (PH) domain to generate the signal. In the absence of PIP3, an HTRF (Homogeneous Time-Resolved Fluorescence energy transfer) complex is formed consisting of europium (Eu)-labeled anti-GST, GSTtagged GRP1-PH domain, biotin-PIP3 and streptavidin conjugated APC. The native PIP3 produced by PI3-Kinase activity disrupts in a competitive manner the biotin-PIP3 from the PH domain, resulting in the loss of energy transfer (HTRF complex) and a decrease in the signal. The format of this assay is the same for all 4 isoforms of PI3K; the differences lie in the concentration of enzyme used to achieve robust assay window. The alpha, beta, and delta assays are run at 0.5, 1, and 0.3 nM enzymes and the gamma assay is run at 5 nM enzyme. The ATP concentration is 100 uM in the alpha, beta, and delta assays and 50 uM ATP in the gamma assay. All reactions are run at 5 uM PIP2.
Compounds are serially diluted (3-fold in 100% DMSO) across a 384-well polypropylene source plated from column 3 to column 12 and column 13 to column 22, to yield 10 concentration dose response for each test compound. Columns 1, 2, 23 and 24 contain either only DMSO or pharmacological known control inhibitor.
The PI3-Kinase biochemical assay was optimized using the HTRF kit provided by Upstate (Millipore). The assay kit contains six reagents: 1) 4× Reaction Buffer; 2) native PIP2 (substrate); 3) Stop (EDTA); 4) Detection Mix A (Streptavidin-APC); 5) Detection Mix B (Eu-labeled Anti-GST plus GST-tagged PH-domain); 6) Detection Mix C.
PI3Kinase Reaction Buffer is prepared by dilution the stock 1:4 with de-ionized water. […] Enzyme addition and compound pre-incubation are initiated by the addition of 1.25 ul of PI3K (at twice its final concentration) in the 1× reaction buffer to all wells using a BioRaptor. Plates are incubated at room temperature for 15 minutes. Reactions are initiated by addition of 1.25 ul of 2× substrate solution (PIP2 and ATP in 1× reaction buffer) using BioRaptor. Plates are incubated in humidified chamber at room temperature for one hour. Reactions are quenched by addition of 0.625 uL of stop solution to all wells using the BioRaptor. The quenched reactions are then processed to detect product formation by adding 0.625 uL of Detection Solution to all wells using the BioRaptor (Detection mix C, Detection Mix A, and Detection Mix B combined together in an 18:1:1 ratio prepared 2 hours prior to use).
The loss of the HTRF signal is due to the displacement of biotinylated-PIP3 from the PH domain by the PI3K-dependent conversion of PIP2 to PIP3. This loss of signal is nonlinear with respect to both increasing product and time. This non-linear detection will impact accuracy of IC50 calculations; therefore, there is a need for a correction factor to obtain more accurate IC50 values. This correction is derived from a PIP3 standard curve run in a separate assay plate. All data were calculated using the ratio of acceptor (APC) to donor (Europium) fluorescence in each well of the assay plate. […] An IC50 was then calculated fitting the % inhibition data to the equation: % inhibition=min+(Max−min)/1+([inhibitor]/IC50)^n) where min is the % inhibition with inhibitor, max is the signal in DMSO control, and n is the Hill slope.

PI3K-alpha = target: T2, PI3K-alpha (Homo sapiens, UniProt P42336); experiment: HTRF PI3K biochemical assay, alpha isoform; details: ratio PI3K-alpha IC50 value / PI3K-delta IC50 value
T2 construct: purchased Upstate; Millipore 14-602
T2 sequence (P42336 whole entry, canonical isoform): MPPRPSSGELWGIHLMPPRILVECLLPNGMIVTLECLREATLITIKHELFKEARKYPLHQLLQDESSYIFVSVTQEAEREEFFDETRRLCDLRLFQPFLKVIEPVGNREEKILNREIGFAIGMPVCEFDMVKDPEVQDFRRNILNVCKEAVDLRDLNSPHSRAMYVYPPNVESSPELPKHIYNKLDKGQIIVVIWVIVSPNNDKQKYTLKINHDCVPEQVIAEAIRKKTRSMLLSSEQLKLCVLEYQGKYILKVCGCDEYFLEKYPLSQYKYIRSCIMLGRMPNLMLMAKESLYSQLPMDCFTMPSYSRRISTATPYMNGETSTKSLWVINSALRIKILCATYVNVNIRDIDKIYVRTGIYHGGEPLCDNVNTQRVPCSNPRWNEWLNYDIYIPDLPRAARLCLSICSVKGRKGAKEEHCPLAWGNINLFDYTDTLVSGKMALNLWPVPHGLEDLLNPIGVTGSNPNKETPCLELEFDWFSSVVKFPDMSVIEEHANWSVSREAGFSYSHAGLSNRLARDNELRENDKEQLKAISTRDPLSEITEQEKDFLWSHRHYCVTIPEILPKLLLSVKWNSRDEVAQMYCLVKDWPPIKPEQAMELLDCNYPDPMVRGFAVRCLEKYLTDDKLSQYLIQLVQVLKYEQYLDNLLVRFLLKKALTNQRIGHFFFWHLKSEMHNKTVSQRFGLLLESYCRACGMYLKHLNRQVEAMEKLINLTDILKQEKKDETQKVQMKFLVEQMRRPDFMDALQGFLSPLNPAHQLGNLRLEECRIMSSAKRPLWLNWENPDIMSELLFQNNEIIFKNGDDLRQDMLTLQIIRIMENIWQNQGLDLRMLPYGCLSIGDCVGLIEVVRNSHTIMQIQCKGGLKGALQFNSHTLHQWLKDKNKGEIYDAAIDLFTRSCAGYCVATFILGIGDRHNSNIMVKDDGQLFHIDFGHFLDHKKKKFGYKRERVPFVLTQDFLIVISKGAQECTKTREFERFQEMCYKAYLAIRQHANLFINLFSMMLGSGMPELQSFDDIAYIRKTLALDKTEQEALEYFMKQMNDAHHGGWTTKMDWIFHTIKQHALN
T2 sequence (P27986 whole entry partner, canonical isoform): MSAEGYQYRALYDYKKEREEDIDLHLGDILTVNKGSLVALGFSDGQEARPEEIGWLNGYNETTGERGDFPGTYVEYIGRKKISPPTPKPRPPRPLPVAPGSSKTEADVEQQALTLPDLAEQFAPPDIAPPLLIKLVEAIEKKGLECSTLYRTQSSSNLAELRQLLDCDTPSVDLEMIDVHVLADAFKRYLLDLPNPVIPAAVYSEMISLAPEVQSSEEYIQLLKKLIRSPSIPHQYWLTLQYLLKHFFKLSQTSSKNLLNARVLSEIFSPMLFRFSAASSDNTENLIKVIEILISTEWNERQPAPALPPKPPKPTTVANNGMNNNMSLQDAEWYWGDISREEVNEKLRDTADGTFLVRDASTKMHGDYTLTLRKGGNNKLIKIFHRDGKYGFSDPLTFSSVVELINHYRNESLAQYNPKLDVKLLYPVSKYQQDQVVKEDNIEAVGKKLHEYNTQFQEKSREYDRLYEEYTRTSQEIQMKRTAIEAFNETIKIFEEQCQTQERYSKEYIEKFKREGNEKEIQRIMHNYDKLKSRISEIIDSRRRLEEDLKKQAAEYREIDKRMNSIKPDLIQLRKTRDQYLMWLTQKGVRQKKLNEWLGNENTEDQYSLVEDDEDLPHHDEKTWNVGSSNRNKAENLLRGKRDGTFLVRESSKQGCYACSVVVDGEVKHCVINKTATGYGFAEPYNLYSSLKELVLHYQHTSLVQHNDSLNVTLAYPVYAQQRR

T1 sequence (O00329 whole entry, canonical isoform): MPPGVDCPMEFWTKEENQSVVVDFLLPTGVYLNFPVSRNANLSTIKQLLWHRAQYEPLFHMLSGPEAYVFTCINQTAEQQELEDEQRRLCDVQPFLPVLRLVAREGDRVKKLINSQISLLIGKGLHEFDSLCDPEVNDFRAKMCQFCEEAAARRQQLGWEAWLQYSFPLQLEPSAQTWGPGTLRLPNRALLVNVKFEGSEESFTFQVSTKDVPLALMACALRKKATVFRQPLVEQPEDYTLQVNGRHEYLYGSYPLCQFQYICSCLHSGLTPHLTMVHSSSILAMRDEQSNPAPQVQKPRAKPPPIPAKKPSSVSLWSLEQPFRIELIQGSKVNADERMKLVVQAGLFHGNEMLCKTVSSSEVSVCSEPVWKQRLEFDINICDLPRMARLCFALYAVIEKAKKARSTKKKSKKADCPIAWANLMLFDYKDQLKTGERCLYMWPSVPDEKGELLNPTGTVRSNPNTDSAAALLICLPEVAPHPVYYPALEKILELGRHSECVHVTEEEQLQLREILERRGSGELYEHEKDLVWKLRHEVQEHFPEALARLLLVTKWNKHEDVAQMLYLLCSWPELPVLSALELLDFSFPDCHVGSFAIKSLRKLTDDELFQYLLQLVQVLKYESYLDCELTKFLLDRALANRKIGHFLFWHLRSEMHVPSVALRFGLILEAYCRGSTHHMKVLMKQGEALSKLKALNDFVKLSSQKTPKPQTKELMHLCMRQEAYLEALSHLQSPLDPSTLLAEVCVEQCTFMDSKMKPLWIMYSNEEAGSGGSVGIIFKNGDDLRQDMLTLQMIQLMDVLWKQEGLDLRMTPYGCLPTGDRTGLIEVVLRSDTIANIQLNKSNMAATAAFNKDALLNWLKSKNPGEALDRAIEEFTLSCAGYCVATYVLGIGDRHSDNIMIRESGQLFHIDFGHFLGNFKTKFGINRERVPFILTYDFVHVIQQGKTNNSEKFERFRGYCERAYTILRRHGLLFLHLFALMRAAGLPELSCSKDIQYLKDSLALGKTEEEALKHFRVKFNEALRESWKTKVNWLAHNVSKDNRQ
T1 sequence (P27986 whole entry partner, canonical isoform): as the sequence (P27986 whole entry partner, canonical isoform) above

IC50 (PI3K-delta) [nM]	Selectivity versus PI3Kalpha (PI3K-alpha)	SMILES
4.3	>10	CCn1c(-c2cnc(C)nc2)nc2c(N[C@H]3CCN(C(=O)OCCCN(C)C)C3)ncnc21 [Compound 13-11, 3-(dimethylamino)propyl (3S)-3-{[9-ethyl-8-(2-methylpyrimidin-5-yl)-9H-purin-6-yl]amino}pyrrolidine-1-carboxylate]
1.7	>10	CCn1c(-c2cnc(C)nc2)nc2c(N[C@H]3CCN(C(=O)NC4CC4)C3)ncnc21 [Compound 12-6, (3S)-N-cyclopropyl-3-{[9-ethyl-8-(2-methylpyrimidin-5-yl)-9H-purin-6-yl]amino}pyrrolidine-1-carboxamide]
23	>10	CCn1c(C(=O)Nc2ccccn2)nc2c(N[C@H]3CCN(C(=O)C4CC4)C3)ncnc21 [Compound 6-20, 6-{[(3S)-1-(cyclopropylcarbonyl)pyrrolidin-3-yl]amino}-9-ethyl-N-pyridin-2-yl-9H-purine-8-carboxamide]
130	>10	CCn1c(C(C)C)nc2c(N[C@H]3CCN(C(=O)C4CC4)C3)ncnc21 [Compound 7-5, N-[(3S)-1-(cyclopropylcarbonyl)pyrrolidin-3-yl]-9-ethyl-8-(1-methylethyl)-9H-purin-6-amine]
36	>10	CCCn1c(-c2cnc(C)nc2)nc2c(N[C@H]3CCN(C(=O)CC)C3)ncnc21 [Compound 9-2, 8-(2-methylpyrimidin-5-yl)-N-[(3S)-1-propanoylpyrrolidin-3-yl]-9-propyl-9H-purin-6-amine]
3.2	>10	CCn1c(C(F)F)nc2c(N[C@H]3CCN(C(=O)N4CC(OC)C4)C3)ncnc21 [Compound 7-28, 8-(difluoromethyl)-9-ethyl-N-{(3S)-1-[(3-methoxyazetidin-1-yl)carbonyl]pyrrolidin-3-yl}-9H-purin-6-amine]
41	>10	CCn1c(-c2cnc(C)nc2)nc2c(NC3CN(C(C)C4CC4)CC34CC4)ncnc21 (stereo not drawn) [Compound 10-2, N(S AND R)-[5-(1-(S AND R)-cyclopropylethyl)-5-azaspiro[2.4]hept-7-yl]-9-ethyl-8-(2-methylpyrimidin-5-yl)-9H-purin-6-amine]
5.4	>10	CCn1ncc(-c2nc3c(NC4CC(=O)N(CC(C)C)C4)ncnc3n2C)c1C (racemic) [Compound 14-3, 4(S and R)-{[8-(1-ethyl-5-methyl-1H-pyrazol-4-yl)-9-methyl-9H-purin-6-yl}amino}-1-(2-methylpropyl)pyrrolidin-2-one]
7.6	>10	CCn1c(C(F)F)nc2c(N[C@H]3CCN(C(=O)C4CCC4)C3)ncnc21 [Compound 7-15, N-[(3S)-1-(cyclobutylcarbonyl)pyrrolidin-3-yl]-8-(difluoromethyl)-9-ethyl-9H-purin-6-amine]
17	>10	CCn1c(C(=O)Nc2cccnc2)nc2c(N[C@H]3CCN(C(=O)C4CC4)C3)ncnc21 [Compound 6-21, 6-{[(3S)-1-(cyclopropylcarbonyl)pyrrolidin-3-yl]amino}-9-ethyl-N-pyridin-3-yl-9H-purine-8-carboxamide]
9.2	>10	CCn1c(-c2cnc(C)nc2)nc2c(N[C@H]3CCN(C(=O)OC)C3)ncnc21 [Compound 13-2, methyl (3S)-3-{[9-ethyl-8-(2-methylpyrimidin-5-yl)-9H-purin-6-yl]amino}pyrrolidine-l-carboxylate]
7	>10	CCn1c(-c2cnc(C)nc2)nc2c(N[C@H]3CCN(C(=O)NCc4ccco4)C3)ncnc21 [Compound 12-21, (3S)-3-{[9-ethyl-8-(2-methylpyrimidin-5-yl)-9H-purin-6-yl]amino}-N-(furan-2-ylmethyl)pyrrolidine-1-carboxamide]
20	>10	CCn1c(C(=O)NC(C)(C)C)nc2c(N[C@H]3CCN(C(=O)C4CC4)C3)ncnc21 [Compound 6-16, N-tert-butyl-6-{[(3S)-1-(cyclopropylcarbonyl)pyrrolidin-3-yl]amino}-9-ethyl-9H-purine-8-carboxamide]
8.2	>10	CCn1c(-c2cnc(C)nc2)nc2c(N[C@H]3C[C@H](C(=O)OC)N(c4ccccn4)C3)ncnc21 [Compound 4-12, methyl (4S)-4-{[9-ethyl-8-(2-methylpyrimidin-5-yl)-9H-purin-6-yl]amino}-1-pyridin-2-yl-D-prolinate]

The remaining lines, values behind:

SMILES	IC50 (PI3K-delta) [nM]	Selectivity versus PI3Kalpha (PI3K-alpha)
CCn1c(-c2cnc(C)nc2)nc2c(N[C@H]3CCN(C(=O)C4(COC)CCC4)C3)ncnc21 [Compound 2-57, 9-ethyl-N-[(3S)-1-{[1-(methoxymethyl)cyclobutyl]carbonyl}pyrrolidin-3-yl]-8-(2-methylpyrimidin-5-yl)-9H-purin-6-amine]	7.1	>10
CCn1c(-c2cnc(C)nc2)nc2c(N[C@H]3CCN(C(=O)C4CC4)C3)ncnc21 [Compound 2-21, (S)-cyclopropyl(3-((9-ethyl-8-(2-methylpyrimidin-5-yl)-9H-purin-6-yl)amino)pyrrolidin-1-yl)methanone]	< 1	>10
CCn1c(-c2cnc(C)nc2)nc2c(NC3CN(C(=O)OC(C)(C)C)CC3O)ncnc21 (racemic) [Compound 1-15, ((3R,4R) and (3S,4S))-tert-butyl 3-{[9-ethyl-8-(2-methylpyrimidin-5-yl)-9H-purin-6-yl]amino}-4-hydroxypyrrolidine-1-carboxylate]	10	>10
CCn1ncc(-c2nc3c(N[C@@H]4CCN(C(=O)OC(C)(C)C)C4)ncnc3n2C)c1C [Compound 1-1, tert-butyl (3R)-3-{[8-(1-ethyl-5-methyl-1H-pyrazol-4-yl)-9-methyl-9H-purin-6-yl]amino}pyrrolidine-1-carboxylate]	15	>10
CCn1c(-c2cnc(C)nc2)nc2c(N[C@H]3C[C@@H](C(=O)OC)N(C(=O)OC(C)(C)C)C3)ncnc21 [Compound 1-19, 1-tert-butyl 2-methyl (2S,4S)-4-{[9-ethyl-8-(2-methylpyrimidin-5-yl)-9H-purin-6-yl]amino}pyrrolidine-1,2-dicarboxylate]	69	>10
CCC(=O)N1CC[C@H](N(C)c2ncnc3c2nc(-c2cnc(OC)c(C)c2)n3C)C1 [Compound 2-13, (S)-1-(3-((8-(6-methoxy-5-methylpyridin-3-yl)-9-methyl-9H-purin-6-yl)(methyl)amino)pyrrolidin-1-yl)propan-1-one]	17	>10
CCn1c(-c2cnc(C)nc2)nc2c(NC3CN(C(=O)c4cocn4)CC3C)ncnc21 (single isomer, unassigned) [Compound 2-89, 9-ethyl-N-[-{(3S,4R or 3R,4S)-4-methyl-1-(1,3-oxazol-4-ylcarbonyl)pyrrolidin-3-yl]-8-(2-methylpyrimidin-5-yl)-9H-purin-6-amine]	3.9	>10
CCC(=O)N1CC[C@H](Nc2ncnc3c2nc(-c2ccc(OC)c(C)c2)n3C)C1 [Compound 3-32, 8-(4-methoxy-3-methylphenyl)-9-methyl-N-[(3S)-1-propanoylpyrrolidin-3-yl]-9H-purin-6-amine]	1.9	>10
CCn1c(-c2cnc(C)nc2)nc2c(N[C@H]3CCN(C(=O)C4(COC)CC4)C3)ncnc21 [Compound 2-61, 9-ethyl-N-[(3S)-1-{[1-(methoxymethyl)cyclopropyl]carbonyl}pyrrolidin-3-yl]-8-(2-methylpyrimidin-5-yl)-9H-purin-6-amine]	23	>10
CCn1c(-c2cnc(C)nc2)nc2c(N[C@H]3CCN(C(=O)CC(C)(C)O)C3)ncnc21 [Compound 2-30, 4-[(3S)-3-{[9-ethyl-8-(2-methylpyrimidin-5-yl)-9H-purin-6-yl]amino}pyrrolidin-1-yl]-2-methyl-4-oxobutan-2-ol]	15	>10
CCC(=O)N1CC[C@H](N(C)c2ncnc3c2nc(-c2cnc(OC)c(C)c2)n3CC)C1 [Compound 2-8, (S)-1-(3-((9-ethyl-8-(6-methoxy-5-methylpyridin-3-yl)-9H-purin-6-yl)(methyl)amino)pyrrolidin-1-yl)propan-1-one]	2.2	>10
CCn1c(-c2cnc(C)nc2)nc2c(N[C@H]3CCN(C(=O)Cc4ccccc4)C3)ncnc21 [Compound 2-36, 9-ethyl-8-(2-methylpyrimidin-5-yl)-N-[(3S)-1-(phenylacetyl)pyrrolidin-3-yl]-9H-purin-6-amine]	17	>10
CCn1c(-c2cnc(C)nc2)nc2c(N(C)[C@H]3CCN(C(=O)C4CC4)C3)ncnc21 [Compound 3-29, N-[(3S)-1-(cyclopropylcarbonyl)pyrrolidin-3-yl]-9-ethyl-N-methyl-8-(2-methylpyrimidin-5-yl)-9H-purin-6-amine]	40	>10
CCC(=O)N1CC[C@H](Nc2ncnc3c2nc(-c2ccc(S(C)(=O)=O)cc2)n3C)C1 [Compound 3-27, 9-methyl-8-[4-(methylsulfonyl)phenyl]-N-[(3S)-1-propanoylpyrrolidin-3-yl]-9H-purin-6-amine]	39	>10
CCC(=O)N1CC[C@H](Nc2ncnc3c2nc(-c2cnc4[nH]ccc4c2)n3C)C1 [Compound 3-2, (S)-1-(3-((9-methyl-8-(1H-pyrrolo[2,3-b]pyridin-5-yl)-9H-purin-6-yl)amino)pyrrolidin-1-yl)propan-1-one]	< 1	>10
CCC1CN(C(=O)C2CC2)CC1Nc1ncnc2c1nc(-c1cnc(C)nc1)n2CC (racemic) [Compound 3-19, N-[(3R,4S and 3S,4R)-1-(cyclopropylcarbonyl)-4-ethylpyrrolidin-3-yl]-9-ethyl-8-(2-methylpyrimidin-5-yl)-9H-purin-6-amine]	3.8	>10
